Measurements reported in publication PMC10814725, “In Vitro Anti-Inflammatory Study of Limonoids Isolated from Chisocheton Plants” (Current Issues in Molecular Biology, 2024).
Like-named read-outs stand apart in the source and are kept apart here.

Legend:
in vitro = type: cell-based; details: mouse
[1] = Cell viability by CCK-8, THP-1 cells; type: cell-based; details: human, PMA-differentiated THP-1 cells; for CC50 at 18 h: concentration causing 50% cytotoxicity against THP-1 cells
Procedure, shortened: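 THP-1 cells seeded at 5 × 10^4 cells/well in 96-well plates were differentiated with 0.5 μM PMA for 24 h, washed with PBS, and held overnight at 37 °C in RPMI-1640 containing 0.1% FBS and 1% penicillin–streptomycin. After 1 h compound pretreatment and 18 h further incubation, 10% (v/v) CCK-8 was added for 1 h. Absorbance was read at 405 nm, and background-corrected viability was expressed relative to untreated control cells.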

[2] = LPS 10 ng/mL, read-out: Viability Cell (%) THP-1 LPS-Induced (10 ng/mL)
[3] = without LPS, read-out: Viability Cell (%) THP-1 Without LPS

Row | Compound | viability at 5 µM (in vitro) | viability at 10 µM (in vitro) | viability at 20 µM (in vitro) | viability at 18 h, 10 µM [1, 2] | viability at 18 h, 10 µM [1, 3] | CC50 at 18 h [1]
1 | CC(=O)O[C@H]1[C@@H](O)[C@@]2(C)C3=CC[C@@H](c4ccoc4)[C@]3(C)CC[C@@H]2[C@@]2(C)C=CC(=O)C(C)(C)[C@H]12 [Compound 3, 6α-O-acetyl-7-deacetylnimocinol] | 90.3 ± 5.24% | 91.4 ± 8.26% | 70.2 ± 2.29% | > 99.9% | > 99.9% | 20.3 µM
2 | CC(=O)O[C@H]1[C@@H](OC(C)=O)[C@@]2(C)C3=CC[C@@H](c4ccoc4)[C@]3(C)CC[C@@H]2[C@@]2(C)C=CC(=O)C(C)(C)[C@H]12 [Compound 5, dysobinin] | 83.6 ± 8.91% | 84.29 ± 0.28% | 3.19 ± 1.24% | 52 ± 6.51% | 66.7 ± 6.02% | 14.6 µM
